How the values were obtained:
Alternaria alternata = Alternaria alternata in vitro cell test; type: cell-based; settings: 120 h, 20 ppm of active ingredient, liquid culture, 5 days incubation, spectrometric measurement of mycelium growth, read-out: efficacy (inhibition of fungal growth)
How it was run: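 Liquid culture assay in which A. alternata spores in medium received DMSO-solubilized compound (final DMSO ≤1%). After 5 days, mycelium growth was measured spectrometrically. Inhibition was calculated against fungicide-free control wells.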

[1] = Measurement of Log P values by HPLC on reversed phase columns (EEC directive 79/831 Annex V.A8); type: physicochemical; settings: reversed phase HPLC column, method [a]: LC-UV, acidic range, 0.1% formic acid in water and acetonitrile as eluent
How it was run: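 Reversed-phase HPLC with UV detection per EEC 79/831 Annex V.A8, linear 10–95% acetonitrile gradient. Aqueous eluent: 0.1% formic acid (acidic), 0.001 M ammonium acetate (neutral), or 0.1% phosphoric acid (acidic); multiple values in one method joined by "+".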

Pyrenophora teres = experiment: In vivo preventive test on Pyrenophora teres (net blotch on barley); settings: 240 h, 500 ppm of active ingredient, preventive spray on barley, evaluated 10 days after inoculation, read-out: efficacy
How it was run: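 Young barley plants sprayed preventively with compound formulated in DMSO/acetone/Tween 80 and diluted in water; controls got solvent only. Inoculated 24 hours later with P. teres spore suspension, then held 48 hours at 20° C, 100% RH and 8 days at 20° C, 70-80% RH.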

SMILES | inhibition at 20 ppm (Alternaria alternata) | chromatographic logP [1] | pest or weed control at 500 ppm (Pyrenophora teres)
O=C(NCC(F)(F)c1ccc(Cl)cc1Cl)c1c(Oc2cccc(C(F)(F)F)c2)nnc2c1COCC2 [I-228] | 90 to 100% | 3.85 | 70 to 79%
Cc1ccc(C(F)CNC(=O)c2c(Oc3cccc(Cl)c3F)nnc3c2CCCC3)c(C)c1 (stereo not drawn) [I-136] | 90 to 100% | 3.78 | 90 to 100%
Cc1ccc(C(F)(F)CNC(=O)c2c(Oc3cccc(C(F)F)c3)nnc3c2CCCC3)c(Cl)c1 [I-243] | 90 to 100% | 3.63 | 90 to 100%
Cc1ccc(C(F)(F)CNC(=O)c2c(Oc3cccc(C(F)(F)F)c3)nnc3c2COCC3)c(Cl)c1 [I-124] | 90 to 100% | 3.7 | 80 to 89%
Cc1ccc(C(F)(F)CNC(=O)c2c(Oc3cccc(Cl)c3F)nnc3c2CCCC3)c(C)c1 [I-130] | 90 to 100% | 4 | 90 to 100%
Cc1cc(Br)ccc1C(F)(F)CNC(=O)c1c(Oc2cccc(C(F)F)c2)nnc2c1CCCC2 [I-150] | 90 to 100% | 3.84 | 90 to 100%
Cc1cc(Br)ccc1C(F)(F)CNC(=O)c1c(Oc2cccc(C(F)(F)F)c2)nnc2c1COCC2 [I-127] | 90 to 100% | 3.94 | 70 to 79%
Cc1cc(Cl)ccc1C(F)(F)CNC(=O)c1c(Oc2cccc(Cl)c2F)nnc2c1CCC2 [I-148] | 90 to 100% | 4 | 90 to 100%
O=C(NCC(F)c1ccc(Cl)cc1Cl)c1c(Oc2cccc(C(F)(F)F)c2)nnc2c1COCC2 (stereo not drawn) [I-126] | 90 to 100% | 3.75 | 70 to 79%
O=C(NCC(F)(F)c1ccc(Br)cc1Cl)c1c(Oc2cccc(C(F)(F)F)c2)nnc2c1COCC2 [I-229] | 90 to 100% | 3.94 | 70 to 79%
O=C(NCC(F)(F)c1ccc(Br)cc1Cl)c1c(Oc2cccc(C(F)(F)F)c2)nnc2c1CCC2 [I-212] | 90 to 100% | 4.17 | 90 to 100%
O=C(NCC(F)c1ccc(Cl)cc1Cl)c1c(Oc2cccc(C3CC3)c2)nnc2c1CCCC2 (stereo not drawn) [I-119, 3-(3-cyclopropylphenoxy)-N-[2-(2,4-dichlorophenyl)-2-fluoro-ethyl]-5,6,7,8-tetrahydrocinnoline-4-carboxamide] | 90 to 100% | 4.11 | 90 to 100%
Cc1ccc(CCNC(=O)c2c(Oc3cccc(C4CC4)c3F)nnc3ccccc23)c(C)c1 [I-070] | 90 to 100% | 4.42 | 90 to 100%
Cc1ccc(C(F)(F)CNC(=O)c2c(Oc3cccc(C(F)(F)F)c3)nnc3c2CCCC3)c(Cl)c1 [I-239] | 90 to 100% | 4.05 | 90 to 100%
O=C(NCC(F)(F)c1ccc(Br)cc1Cl)c1c(Oc2cccc(Cl)c2F)nnc2c1CCC2 [I-213] | 90 to 100% | 4.05 | 80 to 89%
Cc1cc(Br)ccc1C(F)(F)CNC(=O)c1c(Oc2cccc(Cl)c2F)nnc2c1CCCC2 [I-152] | 90 to 100% | 4.44 | 80 to 89%
Cc1ccc(C(F)(F)CNC(=O)c2c(Oc3cccc(C(F)F)c3)cnc3ccccc23)c(C)c1 [I-220] | 90 to 100% | 4.08 | 70 to 79%
O=C(NC[C@H](F)c1ccc(Cl)cc1Cl)c1c(Oc2cccc(C3CC3)c2F)nnc2ccccc12 (racemic) [I-072] | 90 to 100% | 4.57 | 90 to 100%
Cc1ccc(C(F)(F)CNC(=O)c2c(Oc3cccc(C(F)(F)F)c3)nnc3cc(C)ccc23)c(Cl)c1 [I-245] | 90 to 100% | 4.7 | 90 to 100%

SMILES | inhibition at 20 ppm (Alternaria alternata) | chromatographic logP [1] | pest or weed control at 500 ppm (Pyrenophora teres)
O=C(NCC(F)c1ccc(Cl)cc1Cl)c1c(Oc2cccc(Cl)c2F)nnc2c1CCCC2 (stereo not drawn) [I-149] | 90 to 100% | 3.94 | 90 to 100%
Cc1ccc(C(F)(F)CNC(=O)c2c(Oc3cccc(C(F)F)c3)nnc3c2CCCC3)c(C)c1 [I-129] | 90 to 100% | 3.68 | 90 to 100%
O=C(NCC(F)c1ccc(Cl)cc1Cl)c1c(Oc2cccc(Cl)c2F)nnc2c1CCC2 (stereo not drawn) [I-188] | 90 to 100% | 3.89 | 90 to 100%
Cc1ccc([C@@H](F)CNC(=O)c2c(Oc3cccc(C(F)(F)F)c3)nnc3ccccc23)cc1C (racemic) [I-084] | 90 to 100% | 4.19 | 90 to 100%
Cc1cc(Cl)ccc1C(F)(F)CNC(=O)c1c(Oc2cccc(C(F)(F)F)c2)nnc2c1CCCC2 [I-145] | 90 to 100% | 4.28 | 90 to 100%
O=C(NC[C@H](F)c1ccc(Cl)cc1Cl)c1c(Oc2cccc(C(F)(F)F)c2)cnc2ccoc12 (racemic) [I-067] | 90 to 100% | 4.18 | 80 to 89%
Cc1ccc(C(F)(F)CNC(=O)c2c(Oc3cccc(C4CC4)c3F)nnc3c2CCCC3)c(Cl)c1 [I-141] | 90 to 100% | 4.17 | 90 to 100%
Cc1ccc(C(F)(F)CNC(=O)c2c(Oc3cccc(Br)c3F)nnc3ccccc23)c(C)c1 [I-227] | 90 to 100% | 4.4 | 70 to 79%
Cc1ccc(C(F)(F)CNC(=O)c2c(Oc3cccc(C4CC4)c3F)nnc3ccccc23)c(C)c1 [I-071, 3-(3-cyclopropyl-2-fluoro-phenoxy)-N-[2-(2,4-dimethyl-phenyl)-2,2-difluoro-ethyl]cinnoline-4-carboxamide] | 90 to 100% | 4.54 | 90 to 100%
Cc1ccc(C(F)CNC(=O)c2c(Oc3cccc(C4CC4)c3F)nnc3c2CCCC3)c(C)c1 (stereo not drawn) [I-137] | 90 to 100% | 4 | 80 to 89%
Cc1ccc(C(F)(F)CNC(=O)c2c(Oc3cccc(C4CC4)c3F)nnc3c2CCCC3)c(C)c1 [I-131] | 90 to 100% | 4.23 | 90 to 100%
Cc1ccc(C(F)(F)CNC(=O)c2c(Oc3cccc(Cl)c3F)nnc3c2CCCC3)c(Cl)c1 [I-140, 3-(3-chloro-2-fluoro-phenoxy)-N-[2-(2-chloro-4-methyl-phenyl)-2,2-difluoro-ethyl]-5,6,7,8-tetrahydrocinnoline-4-carboxamide] | 90 to 100% | 3.94 | 90 to 100%
Cc1ccc(C(F)(F)CNC(=O)c2c(Oc3cccc(C(F)(F)F)c3)nnc3c2CCC3)c(C)c1 [I-132] | 90 to 100% | 4 | 90 to 100%
Cc1ccc(C(F)(F)CNC(=O)c2c(Oc3cccc(Cl)c3)nnc3c2CCCC3)c(Cl)c1 [I-139] | 90 to 100% | 3.89 | 80 to 89%
O=C(NCC(F)c1ccc(Cl)cc1Cl)c1c(Oc2cccc(C(F)(F)F)c2)nnc2c1CCC2 (stereo not drawn) [I-186] | 90 to 100% | 4 | 90 to 100%
Cc1ccc(C(F)(F)CNC(=O)c2c(Oc3cccc(Cl)c3)nnc3c2CCCC3)c(C)c1 [I-121] | 90 to 100% | 3.89 | 90 to 100%
O=C(NCC(F)c1ccc(Cl)cc1Cl)c1c(Oc2cccc(C(F)(F)F)c2)nnc2c1CCCC2 (stereo not drawn) [I-118] | 90 to 100% | 4.05 | 90 to 100%
Cc1ccc(C(F)(F)CNC(=O)c2c(Oc3cccc(Br)c3)nnc3ccccc23)c(C)c1 [I-216] | 90 to 100% | 4.38 | 70 to 79%
